Key:
[1] = Solubility of the compound in surfactant solutions; assay type: physicochemical
From the text: To increase solubility of the compound and promote increase bioavailability, a number of surfactants were screened. The table below lists the solubilities of 1-[(3R,4S)-4-cyanotetrahydropyran-3-yl]-3-[(2-fluoro-6-methoxy-4-pyridyl)amino]pyrazole-4-carboxamide in the tested surfactant solutions.

cIL-31 induced pruritus = conditions: with respect to placebo; similar magnitude to oclacitinib (Apoquel); from WO 2018/108969; cited from earlier work

solubility ([1]; 1% polysorbate (Tween 80) solution, aqueous with cosolvent or surfactant or cyclodextrin, 1% polysorbate (Tween 80)): 50.3 µg/mL
solubility ([1]; 1% sodium lauryl sulfate (SLS) solution, aqueous with cosolvent or surfactant or cyclodextrin, 1% sodium lauryl sulfate (SLS)): 195 µg/mL
solubility ([1]; 10% ELP solution, aqueous with cosolvent or surfactant or cyclodextrin, 10% ELP): 541 µg/mL
solubility ([1]; 10% P407 solution, aqueous with cosolvent or surfactant or cyclodextrin, 10% P407): 217 µg/mL
solubility ([1]; 10% Poloxamer 124 solution, aqueous with cosolvent or surfactant or cyclodextrin, 10% Poloxamer 124): 108 µg/mL
solubility ([1]; 10% Poloxamer 188 solution, aqueous with cosolvent or surfactant or cyclodextrin, 10% Poloxamer 188): 109 µg/mL
solubility ([1]; 10% hydrogenated castor oil (RH40) solution, aqueous with cosolvent or surfactant or cyclodextrin, 10% hydrogenated castor oil (RH40)): 489 µg/mL
solubility ([1]; 10% polyvinylpyrrolidone (PVP) solution, aqueous with cosolvent or surfactant or cyclodextrin, 10% polyvinylpyrrolidone (PVP)): 133 µg/mL
solubility ([1]; 30% HS15 solution, aqueous with cosolvent or surfactant or cyclodextrin, 30% HS15): 1420 µg/mL
solubility ([1]; Oleoyl macrogol-6 / polyoxyl-6 glycerides (Labrafil M1944CS), oil or lipid): 807 µg/mL
solubility ([1]; aqueous with cosolvent or surfactant or cyclodextrin, 1% D-a-Tocopheryl polyethylene glycol 1000 succinate (TPGS)): 99 µg/mL
solubility ([1]; aqueous with cosolvent or surfactant or cyclodextrin, 10% polyoxyethylated 12-hydroxystearic acid (Solutol HS 15)): 460 µg/mL
Water solubility (in words) ([1]; water): poorly water soluble
solubility ([1]; water): 8 µg/mL
Compound: COc1cc(Nc2nn([C@H]3COCC[C@@H]3C#N)cc2C(N)=O)cc(F)n1 [compound of Formula (I), 1-[(3R,4S)-4-cyanotetrahydropyran-3-yl]-3-[(2-fluoro-6-methoxy-4-pyridyl)amino]pyrazole-4-carboxamide]
Suppression of pruritus (cIL-31 induced pruritus): significantly suppressed pruritus

From patent US12564581B2, “Pyrazole pharmaceutical composition” (Intervet Inc., priority 2019, dated 2026)
